Settings: Liquid, Ebulliometric method (Recirculating still)

CCCCN [1-butanamine]
Settings	vapor or sublimation pressure [kPa]
308.3 K	19.99
314.7 K	26.66
319.9 K	33.33
328.2 K	46.66
334.8 K	59.99
337.9 K	66.66
345.1 K	86.66
350 K	101.33

CCNCC [diethylamine]
Settings	vapor or sublimation pressure [kPa]
294.7 K	26.66
299.5 K	33.33
307.6 K	46.66
316.7 K	66.66
323.9 K	86.66
328.3 K	101.33

C1CCNC1 [pyrrolidine]
Settings	vapor or sublimation pressure [kPa]
316.9 K	19.99
323.4 K	26.66
329 K	33.33
337.6 K	46.66
347.5 K	66.66
354.9 K	86.66
359.4 K	101.33

From the NIST ThermoML archive (doi:10.1021/je3009649)
